Reference: patent US20260102418A1, “An anti-influenza virus derivative and uses thereof” (Shijiazhuang Discovery Medicine Technology Co., Ltd., priority 2022, published 2026)

Tested on: A/Weiss/43 (H1N1) oseltamivir-resistant strain
Test: Antiviral CPE assay in MDCK, other influenza strains
Assay type: cell-based, influenza A virus (IAV)
Conditions: Influenza A virus

| Compound | EC50 |
| --- | --- |
| COC(=O)OCOc1c2n(ccc1=O)N([C@@H]1c3ccccc3SCc3c1ccc(F)c3F)[C@@H]1COC3(CC3)CN1C2=O [Compound M42, reference compound] | 2.11 ± 0.72 nM |
| [2H]C([2H])([2H])OC(=O)OCOc1c2n(ccc1=O)N([C@@H]1c3ccccc3[Se]Cc3c1ccc(F)c3F)[C@@H]1COC3(CC3)CN1C2=O [DS1833] | 1.16 ± 0.37 nM |
| [2H]C([2H])([2H])OC(=O)OCOc1c2n(ccc1=O)N([C@@H]1c3ccccc3SCc3c1ccc(F)c3F)[C@@H]1COC3(CC3)CN1C2=O [DS1837] | 1.45 ± 0.55 nM |
| O=C1c2c(OCOP(=O)(O)O)c(=O)ccn2N([C@@H]2c3ccccc3[Se]Cc3c2ccc(F)c3F)[C@@H]2COC3(CC3)CN12 [DS14915] | 1.33 ± 0.22 nM |
| NC(=O)c1ncn([C@@H]2O[C@H](CO)[C@@H](O)[C@H]2O)n1 [Ribavirin, reference compound] | 30300 ± 4080 nM |
